Drawing on PubChem BioAssay AID743417 (Broad Institute, 2014), this text covers AC50 for 95 molecules.

The test system of this assay is Clone20 osteoblast Shn3 3'UTR firefly luciferase, 24 h. Description: Shn3 3'UTR reporter inhibitors, dose response, cell-based, Clone20 osteoblasts, luminescence, dry powder, set 2 (AID 743417).

Records with an inconclusive call do not appear.

What is called AC50 is the midpoint of the concentration-response curve, whichever way the signal moves. Take `Clc1cc2cccnc2c2ncccc12`: the AC50 is 4.06 µM. In the case of `CC(C)Oc1ccc(S(=O)(=O)N2CCCCC2)cc1NC(=O)CN1CCCC1c1cccs1` (stereo not given) it was 7.88 µM.

Turning to `Cc1ccc(S(=O)(=O)CC2CSc3nc4ccccc4n32)cc1` (stereo not given), the half-maximal activity concentration (AC50) was 0.347 µM. In the case of `CN(C)c1ccc(/C=C/c2ccc3ccccc3n2)cc1` it was 1.33 µM; in that of `CCOC(=O)C1CCN(c2cc3c(cc2NC(=O)c2ccccc2Br)n(C)c(=O)n3C)CC1`, 21.3 µM. In the case of `Cc1nnc(NC(=O)c2nc(S(=O)(=O)Cc3ccccc3)ncc2Cl)s1` it was 1.34 µM; in that of `C=CCn1c(C)cc(C(=O)CN2C(=O)c3ccccc3S2(=O)=O)c1C`, 0.974 µM; in that of `Cc1ccc(NN2C(=O)C=C(c3ccc(Cl)cc3)C2=O)cc1`, 6.53 µM. As for `CCN(CC)C(=O)[C@H]1C[C@H](CC(=O)NC/C=C(\C)CCC=C(C)C)C(=O)N2CCc3c([nH]c4cc(CCC(=O)N(C)C)ccc34)[C@]12C`, the figure is 1.37 µM; as for `O=C(NCc1ccc2c(c1)OCO2)c1nc(S(=O)(=O)Cc2ccccc2)ncc1Cl`, 6.4 µM. Regarding `COCCn1c(SCC(=O)/C=C2\N(C)c3ccccc3C2(C)C)nnc1-c1ccncc1`, the AC50 is 2.65 µM. As for `O=C(OCn1ncc(Cl)c(Cl)c1=O)c1ccccc1Cl`, the figure is 3.56 µM; as for `O=C1CC(c2ccccc2)CC(O)=C1C=Nc1cccc(Cl)c1` (stereo not given), 4.94 µM. As for `CCCCNc1cccc2c1S(=O)(=O)N(CCCC)CC(COCc1ccccc1)O2` (stereo not given), the figure is 8.93 µM; as for `Cc1nc2nc(C)n(CCN3CCOCC3)c(=O)c2c(-c2cccc([N+](=O)[O-])c2)c1C(=O)CCCCCCCCCCN1CCC(c2ccccc2)(c2ccccc2)CC1`, 7.38 µM. As for `Cc1cccc(C)c1NC(=O)CN(C)C(=O)c1cc(S(=O)(=O)N(C)C)ccc1N1CCCC1`, the figure is 27.1 µM; as for `O=S(=O)(Nc1cc(Sc2ncn[nH]2)c(O)c2ccccc12)c1ccccc1`, 7.55 µM.

As to `O=C(/C=C1\C(=O)Nc2ccccc21)/C=C1\C(=O)Nc2ccccc21`, the AC50 was 9.5 µM. As for `COc1ccc(-n2nnnc2S(=O)(=O)CC(=O)N2CCCCC2)cc1`, the figure is 5.44 µM; as for `CCCCCCn1c(NCC)nc2c1c(=O)n(C)c(=O)n2C`, 0.834 µM; as for `COc1cccc(NC(=O)c2nc(S(C)(=O)=O)ncc2Cl)c1`, 0.834 µM. In the case of `CN(CC(=O)Nc1cc(S(=O)(=O)N2CCCC2)ccc1Cl)Cc1ccc2c(c1)OCO2` it was 13.1 µM. In the case of `CN(C)c1ccc(/C=C/c2ccc3c4ccccc4ccc3[n+]2-c2ccccc2)cc1` it was below 0.26 µM; in that of `O=C(Nc1ccc2nc3n(c(=O)c2c1)CCCC3)c1cc([N+](=O)[O-])ccc1F`, 0.361 µM. Regarding `CCCCC(=O)NC(c1ccc(C(C)C)cc1)c1ccc2cccnc2c1O` (stereo not given), the AC50 is 0.57 µM.

`COc1ccc(CC(N)c2csc(NC(=O)c3cc(C(C)(C)C)nn3Cc3ccccc3)n2)cc1` (stereo not given): the AC50 was 9.53 µM. Regarding `CCOC(=O)c1ccc(NC(=O)c2nc[nH]c2C(=O)NCCNC(=O)c2[nH]cnc2C(=O)Nc2ccc(C(=O)OCC)cc2)cc1`, the AC50 was 5.51 µM.

With `C[C@H]1CN=C(N(C)C)N1CC1CCC(C(C)(C)C)CC1` (stereo not given in full), the AC50 is 2.27 µM.

In the case of `CC(NNC(=S)N1CCN(c2ccccn2)CC1)c1nccc2ccccc12` (stereo not given), the concentration at half-maximal activity (AC50) is below 0.26 µM. In the case of `CCn1c(=NC(=O)CS(=O)(=O)c2ccccc2)sc2cccc(OC)c21` it was 1.68 µM; in that of `CC(C)c1ccc(NC(=O)Nc2nc(C(N)C3CCCCC3)cs2)cc1` (stereo not given), 7.29 µM. Consider `NC(Cc1ccc(Cl)cc1)c1csc(NC(=O)NCC2CCCCC2)n1` (stereo not given), for which the concentration at half-maximal activity (AC50) was 6.58 µM. In the case of `CCc1cc2c(N3CCN(c4ccccc4)CC3)ncnc2s1` it was 6.18 µM. In the case of `Cn1c(SCc2ccc(F)cc2Cl)nc2ccccc2c1=O` it was 8.65 µM; in that of `CC(C)(C)c1ccc(CN2C3=NCCCN3c3ccccc32)cc1`, 0.836 µM; in that of `COc1ccc(C(NC(C)=O)c2cc(Cl)c3cccnc3c2O)cc1` (stereo not given), 1.61 µM.

Turning to `CCOC(=O)N1CCC(NC(=O)C2CCCN(Cc3nc(-c4cccc(Cl)c4)oc3C)C2)CC1` (stereo not given), the AC50 was 9.5 µM. Regarding `COc1cc(CN2CCc3ccccc3C2)ccc1O`, the AC50 was 0.912 µM. In the case of `O=C1CSc2ccc(C(=O)Nc3cccc(S(=O)(=O)Nc4ccc(Br)cc4)c3)cc2N1` it was 3.08 µM; in that of `Cc1nc2ccccc2cc1OCc1ccc(F)cc1`, 1.7 µM. Regarding `COc1ccc(CC(N)c2csc(NC(=O)Nc3ccc(C(C)C)cc3)n2)cc1` (stereo not given), the concentration at half-maximal activity (AC50) was 5.16 µM. As for `O=C(c1nnsc1S(=O)c1ccc(Cl)cc1)N1CCOCC1` (stereo not given), the figure is 0.93 µM; as for `CC(CCc1ccccc1)NC(=O)COC(=O)c1ccc(S(C)(=O)=O)c([N+](=O)[O-])c1` (stereo not given), 3.34 µM; as for `Cc1ccc(CNc2nc(NCC3CC3)nc3ccsc23)c(C)c1`, 3.95 µM.

Take `Oc1cc(-c2ccncc2)cc2cccnc12`: the AC50 is 5.4 µM. Consider `CCOc1cc(S(=O)(=O)NCc2ccncc2)ccc1Cl`, for which the AC50 is below 0.26 µM. With `COc1cc(CC(=O)Nc2nc(-c3ccc(F)c(F)c3)cs2)cc(OC)c1OC`, the half-maximal activity concentration (AC50) was 3.92 µM. For the molecule `CC(=O)c1ccc(NC(=O)C(C)OC(=O)/C=C/c2ccco2)cc1` (stereo not given), the concentration at half-maximal activity (AC50) was 9.12 µM. As for `Cc1c(C(=O)Nc2ccc(F)c(F)c2)oc2ccc(S(=O)(=O)N3CCCCC3)cc12`, the figure is 7.05 µM.

In the case of `OC[C@@H]1CN(Cc2ccncc2)C[C@H](n2cnc3c(N4CCN(c5ccccc5)CC4)ncnc32)O1`, the AC50 was 2.38 µM.

With `COc1ccc(-n2nc3c(N4CCC(C(=O)NCC(C)c5ccccc5)CC4)nnc(C)c3c2C)cc1` (stereo not given), the AC50 is 3.25 µM. As for `O=C(NNC(=O)c1cccnc1SCc1cccc([N+](=O)[O-])c1)c1ccccn1`, the figure is 1.9 µM; as for `Cc1ccc(NC(=O)CSc2nn(-c3ccccc3)c(=S)s2)cc1S(=O)(=O)N(C)C`, 5.82 µM; as for `CCC(=O)N1c2ccc(S(=O)(=O)N3CCN(c4ccc([N+](=O)[O-])cc4)CC3)cc2CC1C` (stereo not given), 1.93 µM.

Consider `O=C(Cc1ccc(Cl)cc1Cl)Nc1ccncc1`, for which the half-maximal activity concentration (AC50) is 2.56 µM. As for `Cc1cccc(NS(=O)(=O)c2ccc(C3CCCCC3)cc2)c1`, the figure is 5.13 µM; as for `Fc1ccc(-n2nnnc2-c2cnc(-c3cccs3)nc2C(F)(F)F)cc1`, 4.44 µM; as for `CC(=O)NC(c1cc(Cl)c2cccnc2c1O)C(C)C` (stereo not given), 2.96 µM. Turning to `CC(=O)NC(c1cccs1)c1cc(F)c2cccnc2c1O` (stereo not given), the AC50 was 1.67 µM.

Take `CC(C)C(=O)NC(c1ccc(Cl)cc1Cl)c1ccc2cccnc2c1O` (stereo not given): the AC50 was 0.691 µM. In the case of `CN1/C(=C\C=C2/SC(=S)NC2=O)C(C)(C)c2ccccc21` it was 2.6 µM; in that of `c1csc(CCNc2ncnc3sc4c(c23)CCC4)c1`, 1.7 µM. As to `CCCCCc1nc2c(c(=O)c3ccccc3n2C)c(=O)n1C1CCCCCC1`, the half-maximal activity concentration (AC50) is 8.21 µM.

In the case of `O=C(Nc1ccc(Cl)c(Cl)c1)c1cccc(S(=O)(=O)NCc2cccnc2)c1`, the concentration at half-maximal activity (AC50) was 5.39 µM. In the case of `O=C(OC12CC3CC(CC(C3)C1)C2)c1ccc(NCc2cc(O)ccc2O)cc1` it was 2.33 µM. For the molecule `Cc1cc(C)c(S(=O)(=O)N2Cc3ccccc3-n3nncc3C2)c(C)c1`, the AC50 was 4.36 µM. As for `CCOc1ccc2nc(SC3CC(=O)N(c4ccc(C)cc4)C3=O)sc2c1` (stereo not given), the figure is 15.6 µM. `CCCc1ccc(C(=O)NNc2cc(Cl)ccc2Cl)cc1`: the concentration at half-maximal activity (AC50) is 2.59 µM. As for `CCC(CC)CC1CN2CCc3cc(OC)c(OC)cc3C2CC1(O)CC` (stereo not given), the figure is 2 µM; as for `CC(=O)N1CCN(c2ccc(NC(=O)c3ccc([N+](=O)[O-])o3)cc2Cl)CC1`, 1.08 µM. Take `CCCCCOc1ccc(Br)cc1CSC(=N)N`: the half-maximal activity concentration (AC50) is 1.47 µM. Consider `C=C(C)[C@@H]1C2=CC(C(=O)OC)=C(C[C@H](C(=C)C)[C@H]3O[C@H]3C3=C[C@H]1OC3=O)O2`, for which the AC50 is 8.16 µM. In the case of `N=c1n(Cc2ccccc2)c2ccccc2n1CC(O)COc1ccc(Cl)cc1Cl` (stereo not given) it was 2.89 µM. As for `O=C(Nc1ccc(Cl)cc1)Nc1ccc(N2CCCC2)c(S(=O)(=O)Nc2ccccc2Cl)c1`, the figure is 5.2 µM; as for `CCOc1cc(CNCc2ccccc2)ccc1OCc1ccc(Cl)cc1`, 6.69 µM.

As for `CC(C)Cn1c(N)c(C(=O)COC(=O)CC23CC4CC(CC(C4)C2)C3)c(=O)n(C)c1=O`, the concentration at half-maximal activity (AC50) is 1.51 µM. For `COc1ccc(Cl)cc1N/C(N)=N/c1nc(CSc2ccc(C)cc2)cc(=O)[nH]1`, the concentration at half-maximal activity (AC50) is 1.82 µM. In the case of `COc1ccc2c(c1OC)C(=O)N1c3ccccc3C(=O)N(c3ccccc3F)C21` (stereo not given) it was 11.6 µM; in that of `CN(Cc1nccn1C)C(=O)c1cc(COc2ccc3ncccc3c2)on1`, 6.97 µM; in that of `CCCc1nnc(NC(=O)c2nc(S(=O)(=O)Cc3cccc(C)c3)ncc2Cl)s1`, 2.55 µM.

Take `Cc1ccc([N+](=O)[O-])cc1NC(=O)Nc1cccc(F)c1`: the half-maximal activity concentration (AC50) is 2.21 µM. As for `CC1=NOC(=O)/C1=C\c1ccc(-c2cc(Cl)ccc2Cl)o1`, the figure is 5.69 µM; as for `CCOc1cc(N2CCOCC2)c(OCC)cc1NC(=O)COc1cccc2cccnc12`, 2.41 µM. In the case of `COc1cccc(CN(C)C(=O)c2cc(COc3ccc4ncccc4c3)on2)c1`, the AC50 is 1.49 µM. As for `CCOC(=O)Cn1c(S(=O)(=O)Cc2ccccc2Cl)nc(-c2ccccc2)c1-c1ccccc1`, the figure is 9.29 µM; as for `Oc1cc(-c2cccnc2)cc2cccnc12`, 9.27 µM; as for `Cc1ccc(N/C(N)=N/c2nc(C)cc(N3CCCCC3)n2)c(C)c1`, 0.891 µM. In the case of `CC(Oc1ccc(F)cc1)C(=O)N(CCC1=CCCCC1)c1c(N)n(Cc2ccccc2)c(=O)[nH]c1=O` (stereo not given) it was 7.99 µM; in that of `CC(Sc1nc2ccccc2c(=O)n1C)C(=O)N(C)C1CCCCC1` (stereo not given), 2.27 µM. In the case of `CCOc1ccc(S(=O)(=O)NCc2ccncc2)cc1` it was 0.261 µM; in that of `COc1cc(NS(=O)(=O)c2ccc(C)cc2C)cc(OC)c1OC`, 4.95 µM.

Consider `c1ccc(CNc2ncnc3scc(-c4cccs4)c23)nc1`, for which the AC50 is 3.59 µM. As for `Cc1ccc(NC(=O)CSc2ccc3c(c2)OCCO3)c(O)c1`, the figure is 0.343 µM; as for `CN1/C(=C\C(=O)CN2C(=O)NC3(CCCCCC3)C2=O)C(C)(C)c2ccccc21`, 2.66 µM. `COc1ccc(-c2cc3nc(C)n(N)c(=O)c3s2)cc1`: the AC50 was 1.13 µM.
